From PubChem BioAssay AID1918930 (Molecular Pharmacology Branch, DTP, NCI, 2023)
“And” between values parts separate entries of the source, which are not always exact repeats. Identical values can stand only once. The source made the active and inactive calls. Rule for the calls: active = viability on the fitted dose curve at most 10% of control; inactive = the rest.

System: 233499-124-R-J3-PDC complex spheroid viability, % test/control
Assay: Anticancer human tumor 233499-124-R-J3-PDC patient-derived colon adenocarcinoma cell line growth inhibition
Details: for viability, T/C: stronger effect = lower value
Method in brief: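 Complex spheroids of tumor cells with HUVEC and human MSCs, exposed to iadademstat combined with other agents. Each agent tested in half-log steps from near clinical Cmax (else 10 microM top), DMSO ≤0.25%.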

[1] = curve of first compound, second compound 0.1 µM
[2] = curve of first compound, second compound 0.316 µM
[3] = curve of first compound, second compound 1 µM
[4] = curve of first compound, second compound 3.16 µM
[5] = curve of first compound, second compound 10 µM
[6] = second compound 0.1 µM, first compound 0.00949 µM
[7] = second compound 0.1 µM, first compound 0.03 µM
[8] = second compound 0.1 µM, first compound 0.0949 µM
[9] = second compound 0.1 µM, first compound 0.3 µM
[10] = second compound 0.1 µM, first compound 0.949 µM
[11] = second compound 0.1 µM, first compound 3 µM
[12] = second compound 0.316 µM, first compound 0.00949 µM
[13] = second compound 0.316 µM, first compound 0.03 µM
[14] = second compound 0.316 µM, first compound 0.0949 µM
[15] = second compound 0.316 µM, first compound 0.3 µM
[16] = second compound 0.316 µM, first compound 0.949 µM
[17] = second compound 0.316 µM, first compound 3 µM
[18] = second compound 1 µM, first compound 0.00949 µM
[19] = second compound 1 µM, first compound 0.03 µM
[20] = second compound 1 µM, first compound 0.0949 µM
[21] = second compound 1 µM, first compound 0.3 µM
[22] = second compound 1 µM, first compound 0.949 µM
[23] = second compound 1 µM, first compound 3 µM
[24] = second compound 3.16 µM, first compound 0.00949 µM
[25] = second compound 3.16 µM, first compound 0.03 µM
[26] = second compound 3.16 µM, first compound 0.0949 µM
[27] = second compound 3.16 µM, first compound 0.3 µM
[28] = second compound 3.16 µM, first compound 0.949 µM
[29] = second compound 3.16 µM, first compound 3 µM
[30] = second compound 10 µM, first compound 0.00949 µM
[31] = second compound 10 µM, first compound 0.03 µM
[32] = second compound 10 µM, first compound 0.0949 µM
[33] = second compound 10 µM, first compound 0.3 µM
[34] = second compound 10 µM, first compound 0.949 µM
[35] = second compound 10 µM, first compound 3 µM
[36] = second compound 0.1 µM, first compound 0.00316 µM
[37] = second compound 0.1 µM, first compound 0.01 µM
[38] = second compound 0.1 µM, first compound 0.0316 µM
[39] = second compound 0.1 µM, first compound 0.1 µM
[40] = second compound 0.1 µM, first compound 0.316 µM
[41] = second compound 0.1 µM, first compound 1 µM
[42] = second compound 0.316 µM, first compound 0.00316 µM
[43] = second compound 0.316 µM, first compound 0.01 µM
[44] = second compound 0.316 µM, first compound 0.0316 µM
[45] = second compound 0.316 µM, first compound 0.1 µM
[46] = second compound 0.316 µM, first compound 0.316 µM
[47] = second compound 0.316 µM, first compound 1 µM
[48] = second compound 1 µM, first compound 0.00316 µM
[49] = second compound 1 µM, first compound 0.01 µM
[50] = second compound 1 µM, first compound 0.0316 µM
[51] = second compound 1 µM, first compound 0.1 µM
[52] = second compound 1 µM, first compound 0.316 µM
[53] = second compound 1 µM, first compound 1 µM
[54] = second compound 3.16 µM, first compound 0.00316 µM
[55] = second compound 3.16 µM, first compound 0.01 µM
[56] = second compound 3.16 µM, first compound 0.0316 µM
[57] = second compound 3.16 µM, first compound 0.1 µM
[58] = second compound 3.16 µM, first compound 0.316 µM
[59] = second compound 3.16 µM, first compound 1 µM
[60] = second compound 10 µM, first compound 0.00316 µM
[61] = second compound 10 µM, first compound 0.01 µM
[62] = second compound 10 µM, first compound 0.0316 µM
[63] = second compound 10 µM, first compound 0.1 µM
[64] = second compound 10 µM, first compound 0.316 µM
[65] = second compound 10 µM, first compound 1 µM
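Throughout, for IC50: spheroids exposed to agents for one week before readout.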
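Throughout, for viability, T/C: spheroids exposed to agents for one week before readout.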

NS(=O)(=O)OCC1CC(n2ccc3c(NC4CCc5ccccc54)ncnc32)CC1O (stereo not drawn) + NC1CC1c1ccc(-c2cccc(O)c2)cc1
IC50 [1]: 46.8 nM | IC50 [2]: 58.5 nM | IC50 [3]: 42.3 nM | IC50 [4]: 52.4 nM | IC50 [5]: 46.4 nM | viability, T/C [6]: 92.5% | viability, T/C [7]: 63.6% | viability, T/C [8]: 28.6% | viability, T/C [9]: 6.14% | viability, T/C [10]: 3.11% | viability, T/C [11]: 2.93% | viability, T/C [12]: 100% | viability, T/C [13]: 76.9% | viability, T/C [14]: 31.2% | viability, T/C [15]: 5.03% | viability, T/C [16]: 4.27% | viability, T/C [17]: 3.91% | viability, T/C [18]: 92.3% | viability, T/C [19]: 59.1% | viability, T/C [20]: 28.5% | viability, T/C [21]: 9.59% | viability, T/C [22]: 4.05% | viability, T/C [23]: 3.47% | viability, T/C [24]: 90.8% | viability, T/C [25]: 68.8% | viability, T/C [26]: 29.9% | viability, T/C [27]: 9.96% | viability, T/C [28]: 4.13% | viability, T/C [29]: 3.43% | viability, T/C [30]: 84% | viability, T/C [31]: 63.9% | viability, T/C [32]: 27.1% | viability, T/C [33]: 8.93% | viability, T/C [34]: 5.35% | viability, T/C [35]: 2.93%

Nc1ncn(C2CC(O)C(CO)O2)c(=O)n1 (stereo not drawn) + NC1CCC(NC2CC2c2ccccc2)CC1
IC50 [1]: > 1000 nM | IC50 [2]: > 1000 nM | IC50 [3]: > 1000 nM | IC50 [4]: > 1000 nM | IC50 [5]: > 1000 nM | viability, T/C [36]: 77.1% | viability, T/C [37]: 83.9% | viability, T/C [38]: 83.8% | viability, T/C [39]: 69% | viability, T/C [40]: 110% | viability, T/C [41]: 111% | viability, T/C [42]: 92.6% | viability, T/C [43]: 96.8% | viability, T/C [44]: 87.2% | viability, T/C [45]: 86.8% | viability, T/C [46]: 98.8% | viability, T/C [47]: 77.6% | viability, T/C [48]: 89.3% | viability, T/C [49]: 75.2% | viability, T/C [50]: 74.8% | viability, T/C [51]: 72.5% | viability, T/C [52]: 85.1% | viability, T/C [53]: 94.8% | viability, T/C [54]: 82.9% | viability, T/C [55]: 72.2% | viability, T/C [56]: 73.6% | viability, T/C [57]: 82.6% | viability, T/C [58]: 55.8% | viability, T/C [59]: 101% | viability, T/C [60]: 74.2% | viability, T/C [61]: 71.2% | viability, T/C [62]: 68.7% | viability, T/C [63]: 65.8% | viability, T/C [64]: 73.1% | viability, T/C [65]: 82.1%

COc1cc(Nc2ncc3c(n2)-c2ccc(Cl)cc2C(c2c(F)cccc2OC)=NC3)ccc1C(=O)O + NC1CC1c1ccc(-c2cccc(O)c2)cc1
IC50 [1]: > 1000 nM | IC50 [2]: > 1000 nM | IC50 [3]: < 3.16 nM | IC50 [4]: < 3.16 nM | IC50 [5]: < 3.16 nM | viability, T/C [36]: 44.5% | viability, T/C [37]: 54.3% | viability, T/C [38]: 66.4% | viability, T/C [39]: 72.5% | viability, T/C [40]: 62% | viability, T/C [41]: 102% | viability, T/C [42]: 49.5% | viability, T/C [43]: 59.6% | viability, T/C [44]: 64.1% | viability, T/C [45]: 62.1% | viability, T/C [46]: 62.8% | viability, T/C [47]: 98.4% | viability, T/C [48]: 44.2% | viability, T/C [49]: 50.7% | viability, T/C [50]: 53.2% | viability, T/C [51]: 54.3% | viability, T/C [52]: 60.6% | viability, T/C [53]: 82.9% | viability, T/C [54]: 39.8% | viability, T/C [55]: 52.1% | viability, T/C [56]: 70.5% | viability, T/C [57]: 57.2% | viability, T/C [58]: 62.5% | viability, T/C [59]: 88.9% | viability, T/C [60]: 33% | viability, T/C [61]: 48.3% | viability, T/C [62]: 56.2% | viability, T/C [63]: 49% | viability, T/C [64]: 52.1% | viability, T/C [65]: 86.1%

CCN(c1cc(-c2ccc(CN3CCOCC3)cc2)cc(C(=O)NCc2c(C)cc(C)[nH]c2=O)c1C)C1CCOCC1
viability, T/C (compound 0.00949 µM): 81.1% and 101% | viability, T/C (compound 0.03 µM): 86.2% and 103% | viability, T/C (compound 0.0949 µM): 101% and 96% | viability, T/C (compound 0.3 µM): 103% and 97.8% | viability, T/C (compound 0.949 µM): 110% and 83.4% | viability, T/C (compound 3 µM): 99.1% and 52.7% | IC50 (curve of compound): > 3000 nM

Nc1ccn(C2OC(CO)C(O)C2(F)F)c(=O)n1 (stereo not drawn) + NC1CC1c1ccc(-c2cccc(O)c2)cc1
IC50 [1]: 87.3 nM | IC50 [2]: 73.4 nM | IC50 [3]: 32.8 nM | IC50 [4]: 55.8 nM | IC50 [5]: 34.8 nM | viability, T/C (second compound 0.1 µM, first compound 0.000949 µM): 111% | viability, T/C (second compound 0.1 µM, first compound 0.003 µM): 97.9% | viability, T/C [6]: 104% | viability, T/C [7]: 72.4% | viability, T/C [8]: 49.4% | viability, T/C [9]: 45.2% | viability, T/C (second compound 0.316 µM, first compound 0.000949 µM): 85.1% | viability, T/C (second compound 0.316 µM, first compound 0.003 µM): 96.1% | viability, T/C [12]: 75.3% | viability, T/C [13]: 69.9% | viability, T/C [14]: 41% | viability, T/C [15]: 41.7% | viability, T/C (second compound 1 µM, first compound 0.000949 µM): 96.1% | viability, T/C (second compound 1 µM, first compound 0.003 µM): 84.7% | viability, T/C [18]: 78.1% | viability, T/C [19]: 49.2% | viability, T/C [20]: 41.2% | viability, T/C [21]: 38.7% | viability, T/C (second compound 3.16 µM, first compound 0.000949 µM): 92.3% | viability, T/C (second compound 3.16 µM, first compound 0.003 µM): 95.6% | viability, T/C [24]: 72.7% | viability, T/C [25]: 60.1% | viability, T/C [26]: 39.1% | viability, T/C [27]: 46.2% | viability, T/C (second compound 10 µM, first compound 0.000949 µM): 83.5% | viability, T/C (second compound 10 µM, first compound 0.003 µM): 69.4% | viability, T/C [30]: 74.8% | viability, T/C [31]: 52.5% | viability, T/C [32]: 32.8% | viability, T/C [33]: 35.1%

CC1(C)CCC(CN2CCN(c3ccc(C(=O)NS(=O)(=O)c4ccc(NCC5CCOCC5)c([N+](=O)[O-])c4)c(Oc4cnc5[nH]ccc5c4)c3)CC2)=C(c2ccc(Cl)cc2)C1
viability, T/C (compound 0.0316 µM): 96.6% and 90.8% | viability, T/C (compound 0.1 µM): 93.2% and 96.6% | viability, T/C (compound 0.316 µM): 118% and 99.7% | viability, T/C (compound 1 µM): 112% and 93.5% | viability, T/C (compound 3.16 µM): 120% and 40.8% | IC50 (curve of compound): > 10000 nM and 2590 nM

CCN(c1cc(-c2ccc(CN3CCOCC3)cc2)cc(C(=O)NCc2c(C)cc(C)[nH]c2=O)c1C)C1CCOCC1 + NC1CCC(NC2CC2c2ccccc2)CC1
IC50 [1]: > 3000 nM | IC50 [2]: > 3000 nM | IC50 [3]: > 3000 nM | IC50 [4]: > 3000 nM | IC50 [5]: > 3000 nM | viability, T/C [6]: 99.9% | viability, T/C [7]: 117% | outcome [8]: inactive | viability, T/C [9]: 121% | viability, T/C [10]: 101% | viability, T/C [11]: 126% | viability, T/C [12]: 101% | viability, T/C [13]: 110% | viability, T/C [14]: 113% | viability, T/C [15]: 102% | viability, T/C [16]: 118% | viability, T/C [17]: 135% | viability, T/C [18]: 80.9% | viability, T/C [19]: 77.9% | viability, T/C [20]: 80.4% | viability, T/C [21]: 96.2% | viability, T/C [22]: 88.5% | viability, T/C [23]: 122% | viability, T/C [24]: 75.5% | viability, T/C [25]: 95.2% | viability, T/C [26]: 85.8% | viability, T/C [27]: 87.4% | viability, T/C [28]: 76.2% | viability, T/C [29]: 104% | viability, T/C [30]: 86% | viability, T/C [31]: 68% | viability, T/C [32]: 69.4% | viability, T/C [33]: 74.9% | viability, T/C [34]: 83.5% | viability, T/C [35]: 90.2%
